The supplement of paper PMC6045584
± gives the standard deviation of the averaged measurements.

Compound: CN(C)CC[C@H](CSc1ccccc1)Nc1ccc(S(=O)(=O)NC(=O)c2ccc(N3CCN(Cc4ccccc4-c4ccc(Cl)cc4)CC3)cc2)cc1[N+](=O)[O-] [ABT-737]
Experiment: surviving fraction relative to DMSO-only wells; higher = less growth inhibition
Conditions: 0.5 nM; exposure time: 5 days
Outline: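 Tumour cell lines were seeded in log phase at 250–500 cells per well into 384-well plates. Starting 24 hours later, inhibitors were present continuously for five days at 0.5, 1, 5, 10, 50, 100, 500 and 1000 nM. Surviving fraction, from CellTiter-Glo luminescence, is normalised to the median of DMSO-only wells. Three screens per line were required, with replicate Pearson r >0.7 and median Z' >0.3 for a line to be kept.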

SUM149.B1*.S BREAST and 93VU HEADNECK are within error of each other in surviving fraction: 1.13 ± 0.027 for the first, 1.146 ± 0.0083 for the second.

Going from LM7 BONE to 143B BONE, the surviving fraction rises from 0.97 ± 0.065 to 1.08 ± 0.042.

First: SUM159 BREAST
Second: SUM149 BREAST
The surviving fraction of the first is higher: 1.1 ± 0.018 for the first, 1.02 ± 0.036 for the second.

Going from MDAMB361 BREAST to SAOS2 BONE, the surviving fraction rises from 0.853 ± 0.098 to 1.18 ± 0.037.

ASKA SYNOVIAL and HCC1395 BREAST are the same in surviving fraction: 1.15 ± 0.031 for the first, 1.15 ± 0.075 for the second.

HCC1954 BREAST and CME SYNOVIAL are within error of each other in surviving fraction: 1.09 ± 0.11 for the first, 1.33 ± 0.17 for the second.

Going from VCAP PROSTATE to YAMATO SYNOVIAL, the surviving fraction rises from 1.03 ± 0.065 to 1.27 ± 0.17.

Going from HCC202 BREAST to HELA CERVIX, the surviving fraction falls from 1.36 ± 0.084 to 1.05 ± 0.04.

SG27 HEADNECK and CAL72 BONE are within error of each other in surviving fraction: 1.26 ± 0.26 for the first, 1.04 ± 0.13 for the second.

MDAMB134 BREAST and C33A CERVIX are within error of each other in surviving fraction: 1.1 ± 0.12 for the first, 0.932 ± 0.1 for the second.

SKBR3 BREAST and MHM BONE are within error of each other in surviving fraction: 1.04 ± 0.035 for the first, 1.03 ± 0.053 for the second.

VP229 BREAST and SYO1 SYNOVIAL are within error of each other in surviving fraction: 1.1 ± 0.09 for the first, 1.03 ± 0.048 for the second.

ZR751 BREAST and KPD BONE are within error of each other in surviving fraction: 1.08 ± 0.16 for the first, 1.06 ± 0.038 for the second.

SIHA CERVIX and DU4475 BREAST are within error of each other in surviving fraction: 1.02 ± 0.017 for the first, 0.935 ± 0.13 for the second.

Going from BT549 BREAST to COLO320DM LARGE INTESTINE, the surviving fraction rises from 0.996 ± 0.018 to 1.09 ± 0.057.

Compared with T47D BREAST, H23 LUNG is lower in surviving fraction: 1.13 ± 0.026 for the first, 1.01 ± 0.043 for the second.

Going from NCIH441 LUNG to HCT15 LARGE INTESTINE, the surviving fraction falls from 1.19 ± 0.027 to 1.02 ± 0.1.

SCC90 HEADNECK and MDAMB453 BREAST are within error of each other in surviving fraction: 1.05 ± 0.077 for the first, 1.07 ± 0.046 for the second.

MG63 BONE and A549 LUNG are within error of each other in surviving fraction: 1.08 ± 0.034 for the first, 1.06 ± 0.012 for the second.

MDAMB468 BREAST gave a surviving fraction of 1.14 ± 0.06.

Same assay, conditions: 1 nM; exposure time: 5 days

SUM149.B1*.S BREAST and 93VU HEADNECK are within error of each other in surviving fraction: 1.1 ± 0.072 for the first, 1.09 ± 0.057 for the second.

LM7 BONE and 143B BONE are within error of each other in surviving fraction: 1.03 ± 0.09 for the first, 1.09 ± 0.027 for the second.

SUM159 BREAST and SUM149 BREAST are within error of each other in surviving fraction: 1.1 ± 0.028 for the first, 1.07 ± 0.023 for the second.

First: MDAMB361 BREAST
Second: SAOS2 BONE
The surviving fraction of the first is lower: 0.812 ± 0.15 for the first, 1.18 ± 0.056 for the second.

ASKA SYNOVIAL and HCC1395 BREAST are within error of each other in surviving fraction: 1.19 ± 0.044 for the first, 1.14 ± 0.053 for the second.

Compared with HCC1954 BREAST, CME SYNOVIAL is higher in surviving fraction: 1.02 ± 0.092 for the first, 1.37 ± 0.049 for the second.

First: VCAP PROSTATE
Second: YAMATO SYNOVIAL
The surviving fraction of the first is lower: 0.971 ± 0.075 for the first, 1.32 ± 0.11 for the second.

HCC202 BREAST and HELA CERVIX are within error of each other in surviving fraction: 1.17 ± 0.2 for the first, 1.05 ± 0.04 for the second.

SG27 HEADNECK and CAL72 BONE are within error of each other in surviving fraction: 1.12 ± 0.12 for the first, 1.06 ± 0.12 for the second.

MDAMB134 BREAST and C33A CERVIX are within error of each other in surviving fraction: 0.848 ± 0.18 for the first, 0.973 ± 0.088 for the second.

SKBR3 BREAST and MHM BONE are within error of each other in surviving fraction: 1.03 ± 0.07 for the first, 1.08 ± 0.062 for the second.

First: VP229 BREAST
Second: SYO1 SYNOVIAL
The surviving fraction of the first is higher: 1.12 ± 0.06 for the first, 1.039 ± 0.01 for the second.

ZR751 BREAST and KPD BONE are within error of each other in surviving fraction: 1.1 ± 0.096 for the first, 1.02 ± 0.049 for the second.

Going from SIHA CERVIX to DU4475 BREAST, the surviving fraction falls from 1.1 ± 0.052 to 0.973 ± 0.042.

Compared with BT549 BREAST, COLO320DM LARGE INTESTINE is higher in surviving fraction: 0.867 ± 0.047 for the first, 1.13 ± 0.085 for the second.

T47D BREAST and H23 LUNG are within error of each other in surviving fraction: 1.08 ± 0.031 for the first, 1.06 ± 0.077 for the second.

Going from NCIH441 LUNG to HCT15 LARGE INTESTINE, the surviving fraction falls from 1.22 ± 0.05 to 1.02 ± 0.14.

SCC90 HEADNECK and MDAMB453 BREAST are within error of each other in surviving fraction: 1.05 ± 0.11 for the first, 1.08 ± 0.083 for the second.

MG63 BONE and A549 LUNG are within error of each other in surviving fraction: 1.07 ± 0.024 for the first, 1.05 ± 0.022 for the second.

For MDAMB468 BREAST, the surviving fraction was 1.08 ± 0.018.

Same assay, conditions: 5 nM; exposure time: 5 days

SUM149.B1*.S BREAST and 93VU HEADNECK are within error of each other in surviving fraction: 1.16 ± 0.021 for the first, 1.21 ± 0.19 for the second.

LM7 BONE and 143B BONE are within error of each other in surviving fraction: 1.11 ± 0.04 for the first, 1.14 ± 0.092 for the second.

SUM159 BREAST and SUM149 BREAST are within error of each other in surviving fraction: 1.12 ± 0.027 for the first, 1.1 ± 0.061 for the second.

First: MDAMB361 BREAST
Second: SAOS2 BONE
The surviving fraction of the first is lower: 0.815 ± 0.058 for the first, 1.21 ± 0.098 for the second.

ASKA SYNOVIAL and HCC1395 BREAST are within error of each other in surviving fraction: 1.2 ± 0.027 for the first, 1.27 ± 0.047 for the second.

Going from HCC1954 BREAST to CME SYNOVIAL, the surviving fraction rises from 1.21 ± 0.047 to 1.42 ± 0.099.

VCAP PROSTATE and YAMATO SYNOVIAL are within error of each other in surviving fraction: 1.14 ± 0.15 for the first, 1.35 ± 0.16 for the second.

HCC202 BREAST and HELA CERVIX are within error of each other in surviving fraction: 1.07 ± 0.069 for the first, 1.06 ± 0.017 for the second.

First: SG27 HEADNECK
Second: CAL72 BONE
The surviving fraction of the first is higher: 1.19 ± 0.029 for the first, 1.06 ± 0.1 for the second.

Compared with MDAMB134 BREAST, C33A CERVIX is higher in surviving fraction: 0.786 ± 0.071 for the first, 1.08 ± 0.013 for the second.

SKBR3 BREAST and MHM BONE are within error of each other in surviving fraction: 0.988 ± 0.13 for the first, 1.07 ± 0.045 for the second.

VP229 BREAST and SYO1 SYNOVIAL are within error of each other in surviving fraction: 1.18 ± 0.11 for the first, 1.03 ± 0.07 for the second.

ZR751 BREAST and KPD BONE are within error of each other in surviving fraction: 1.14 ± 0.17 for the first, 1.11 ± 0.03 for the second.

Compared with SIHA CERVIX, DU4475 BREAST is lower in surviving fraction: 1.12 ± 0.033 for the first, 0.943 ± 0.13 for the second.

BT549 BREAST and COLO320DM LARGE INTESTINE are within error of each other in surviving fraction: 1.12 ± 0.075 for the first, 1.04 ± 0.14 for the second.

T47D BREAST and H23 LUNG are within error of each other in surviving fraction: 1.08 ± 0.08 for the first, 1.05 ± 0.066 for the second.

NCIH441 LUNG and HCT15 LARGE INTESTINE are within error of each other in surviving fraction: 1.115 ± 0.0076 for the first, 1.02 ± 0.12 for the second.

SCC90 HEADNECK and MDAMB453 BREAST are within error of each other in surviving fraction: 1.14 ± 0.12 for the first, 1.1 ± 0.047 for the second.

MG63 BONE and A549 LUNG are within error of each other in surviving fraction: 1.12 ± 0.047 for the first, 1.07 ± 0.023 for the second.

In the case of MDAMB468 BREAST, the surviving fraction is reported as 1.08 ± 0.037.

Same assay, conditions: 10 nM; exposure time: 5 days

SUM149.B1*.S BREAST and 93VU HEADNECK are within error of each other in surviving fraction: 1.12 ± 0.034 for the first, 1.16 ± 0.031 for the second.

LM7 BONE and 143B BONE are within error of each other in surviving fraction: 1.1 ± 0.096 for the first, 1.11 ± 0.071 for the second.

SUM159 BREAST and SUM149 BREAST are within error of each other in surviving fraction: 1.09 ± 0.026 for the first, 1.08 ± 0.051 for the second.

Compared with MDAMB361 BREAST, SAOS2 BONE is higher in surviving fraction: 0.921 ± 0.11 for the first, 1.19 ± 0.082 for the second.

ASKA SYNOVIAL and HCC1395 BREAST are within error of each other in surviving fraction: 1.16 ± 0.047 for the first, 1.25 ± 0.061 for the second.

HCC1954 BREAST and CME SYNOVIAL are within error of each other in surviving fraction: 1.25 ± 0.033 for the first, 1.37 ± 0.11 for the second.

First: VCAP PROSTATE
Second: YAMATO SYNOVIAL
The surviving fraction of the first is lower: 1.04 ± 0.047 for the first, 1.34 ± 0.043 for the second.

Compared with HCC202 BREAST, HELA CERVIX is lower in surviving fraction: 1.43 ± 0.17 for the first, 1.06 ± 0.047 for the second.

SG27 HEADNECK and CAL72 BONE are within error of each other in surviving fraction: 1.16 ± 0.079 for the first, 1.05 ± 0.12 for the second.

Compared with MDAMB134 BREAST, C33A CERVIX is higher in surviving fraction: 0.831 ± 0.016 for the first, 1.08 ± 0.12 for the second.

SKBR3 BREAST and MHM BONE are within error of each other in surviving fraction: 1.19 ± 0.13 for the first, 1.1 ± 0.046 for the second.

First: VP229 BREAST
Second: SYO1 SYNOVIAL
The surviving fraction of the first is higher: 1.12 ± 0.049 for the first, 1.025 ± 0.0082 for the second.

ZR751 BREAST and KPD BONE are within error of each other in surviving fraction: 1.02 ± 0.052 for the first, 1.13 ± 0.069 for the second.

SIHA CERVIX and DU4475 BREAST are within error of each other in surviving fraction: 1.08 ± 0.14 for the first, 0.865 ± 0.1 for the second.

First: BT549 BREAST
Second: COLO320DM LARGE INTESTINE
The surviving fraction of the first is lower: 0.782 ± 0.043 for the first, 1.03 ± 0.12 for the second.

T47D BREAST and H23 LUNG are within error of each other in surviving fraction: 1.08 ± 0.025 for the first, 1.06 ± 0.017 for the second.

NCIH441 LUNG and HCT15 LARGE INTESTINE are within error of each other in surviving fraction: 1.11 ± 0.052 for the first, 1.02 ± 0.17 for the second.

SCC90 HEADNECK and MDAMB453 BREAST are within error of each other in surviving fraction: 1.14 ± 0.073 for the first, 1.13 ± 0.067 for the second.

MG63 BONE and A549 LUNG are within error of each other in surviving fraction: 1.1 ± 0.05 for the first, 1.06 ± 0.03 for the second.

Work on MDAMB468 BREAST yielded a surviving fraction of 1.11 ± 0.066.
